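Assay format: 96-well plates, 48-hour exposure. TGI: total growth inhibition.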
How the values were obtained:
Assay in all cases: DTP human tumour cell line panel, 48 h
786-0 renal = test system: 786-0 renal
A549 NSCLC = test system: A549 NSCLC
ACHN renal = test system: ACHN renal
CAKI-1 renal = test system: CAKI-1 renal
CCRF-CEM leukemia = test system: CCRF-CEM leukemia
COLO 205 colon = test system: COLO 205 colon
DLD-1 colon = test system: DLD-1 colon
DMS 114 small cell lung = test system: DMS 114 small cell lung
EKVX NSCLC = test system: EKVX NSCLC
HCC-2998 colon = test system: HCC-2998 colon
HCT-116 colon = test system: HCT-116 colon
HCT-15 colon = test system: HCT-15 colon
HL-60(TB) leukemia = test system: HL-60(TB) leukemia
HOP-62 NSCLC = test system: HOP-62 NSCLC
HOP-92 NSCLC = test system: HOP-92 NSCLC
HT29 colon = test system: HT29 colon
IGROV1 ovarian = test system: IGROV1 ovarian
K-562 leukemia = test system: K-562 leukemia
KM12 colon = test system: KM12 colon
KM20L2 colon = test system: KM20L2 colon
LOX IMVI melanoma = test system: LOX IMVI melanoma
LXFL 529 NSCLC = test system: LXFL 529 NSCLC
M14 melanoma = test system: M14 melanoma
M19-MEL melanoma = test system: M19-MEL melanoma
MALME-3M melanoma = test system: MALME-3M melanoma
MOLT-4 leukemia = test system: MOLT-4 leukemia
NCI-H226 lung = test system: NCI-H226 lung
NCI-H23 lung = test system: NCI-H23 lung
NCI-H522 lung = test system: NCI-H522 lung
OVCAR-3 ovarian = test system: OVCAR-3 ovarian
OVCAR-4 ovarian = test system: OVCAR-4 ovarian
OVCAR-5 ovarian = test system: OVCAR-5 ovarian
RPMI-8226 leukemia = test system: RPMI-8226 leukemia
SF-268 CNS = test system: SF-268 CNS
SF-295 CNS = test system: SF-295 CNS
SF-539 CNS = test system: SF-539 CNS
SK-MEL-2 melanoma = test system: SK-MEL-2 melanoma
SK-MEL-28 melanoma = test system: SK-MEL-28 melanoma
SK-MEL-5 melanoma = test system: SK-MEL-5 melanoma
SK-OV-3 ovarian = test system: SK-OV-3 ovarian
SN12C renal = test system: SN12C renal
SNB-19 CNS = test system: SNB-19 CNS
SNB-75 CNS = test system: SNB-75 CNS
SNB-78 CNS = test system: SNB-78 CNS
SR leukemia = test system: SR leukemia
SW-620 colon = test system: SW-620 colon
TK-10 renal = test system: TK-10 renal
U251 CNS = test system: U251 CNS
UACC-257 melanoma = test system: UACC-257 melanoma
UACC-62 melanoma = test system: UACC-62 melanoma
UO-31 renal = test system: UO-31 renal
XF 498 CNS = test system: XF 498 CNS
A498 renal = test system: A498 renal
DMS 273 small cell lung = test system: DMS 273 small cell lung
NCI-H460 lung = test system: NCI-H460 lung
OVCAR-8 ovarian = test system: OVCAR-8 ovarian
RXF 393 renal = test system: RXF 393 renal

## c1ccc(C2N=NN(c3ccccc3)C2N2CCCCC2)cc1 (stereo not drawn)
786-0 renal
  TGI: > 100 µM
A549 NSCLC
  TGI: > 100 µM
ACHN renal
  TGI: > 100 µM
CAKI-1 renal
  TGI: > 100 µM
CCRF-CEM leukemia
  TGI: > 100 µM
COLO 205 colon
  TGI: > 100 µM
DLD-1 colon
  TGI: > 100 µM
DMS 114 small cell lung
  TGI: > 100 µM
EKVX NSCLC
  TGI: > 100 µM
HCC-2998 colon
  TGI: > 100 µM
HCT-116 colon
  TGI: > 100 µM
HCT-15 colon
  TGI: > 100 µM
HL-60(TB) leukemia
  TGI: > 100 µM
HOP-62 NSCLC
  TGI: > 100 µM
HOP-92 NSCLC
  TGI: 62.4 µM
HT29 colon
  TGI: > 100 µM
IGROV1 ovarian
  TGI: > 100 µM
K-562 leukemia
  TGI: > 100 µM
KM12 colon
  TGI: > 100 µM
KM20L2 colon
  TGI: > 100 µM
LOX IMVI melanoma
  TGI: > 100 µM
LXFL 529 NSCLC
  TGI: > 100 µM
M14 melanoma
  TGI: > 100 µM
M19-MEL melanoma
  TGI: > 100 µM
MALME-3M melanoma
  TGI: > 100 µM
MOLT-4 leukemia
  TGI: > 100 µM
NCI-H226 lung
  TGI: > 100 µM
NCI-H23 lung
  TGI: > 100 µM
NCI-H522 lung
  TGI: > 100 µM
OVCAR-3 ovarian
  TGI: > 100 µM
OVCAR-4 ovarian
  TGI: > 100 µM
OVCAR-5 ovarian
  TGI: > 100 µM
RPMI-8226 leukemia
  TGI: > 100 µM
SF-268 CNS
  TGI: > 100 µM
SF-295 CNS
  TGI: > 100 µM
SF-539 CNS
  TGI: > 100 µM
SK-MEL-2 melanoma
  TGI: > 100 µM
SK-MEL-28 melanoma
  TGI: > 100 µM
SK-MEL-5 melanoma
  TGI: > 100 µM
SK-OV-3 ovarian
  TGI: 98.3 µM
SN12C renal
  TGI: > 100 µM
SNB-19 CNS
  TGI: > 100 µM
SNB-75 CNS
  TGI: 55 µM
SNB-78 CNS
  TGI: > 100 µM
SR leukemia
  TGI: > 100 µM
SW-620 colon
  TGI: > 100 µM
TK-10 renal
  TGI: > 100 µM
U251 CNS
  TGI: > 100 µM
UACC-257 melanoma
  TGI: > 100 µM
UACC-62 melanoma
  TGI: > 100 µM
UO-31 renal
  TGI: > 100 µM
XF 498 CNS
  TGI: > 100 µM

## CCN(CC)c1ccc2cc3ccc(=[N+](CC)CC)cc-3oc2c1
786-0 renal
  TGI: 7.73 µM
A498 renal
  TGI: 29.8 µM
A549 NSCLC
  TGI: 16.6 µM
ACHN renal
  TGI: 7.39 µM
CAKI-1 renal
  TGI: 18 µM
CCRF-CEM leukemia
  TGI: 6.33 µM
COLO 205 colon
  TGI: 2.05 µM
DLD-1 colon
  TGI: 14.5 µM
DMS 114 small cell lung
  TGI: 3.8 µM
DMS 273 small cell lung
  TGI: 2.49 µM
EKVX NSCLC
  TGI: 19.9 µM
HCC-2998 colon
  TGI: 19 µM
HCT-116 colon
  TGI: 1.77 µM
HCT-15 colon
  TGI: 12.7 µM
HL-60(TB) leukemia
  TGI: 0.532 µM
HOP-62 NSCLC
  TGI: 13.7 µM
HOP-92 NSCLC
  TGI: 3.13 µM
HT29 colon
  TGI: 4.48 µM
IGROV1 ovarian
  TGI: 8.36 µM
K-562 leukemia
  TGI: > 100 µM
KM12 colon
  TGI: 1.92 µM
KM20L2 colon
  TGI: 12.1 µM
LOX IMVI melanoma
  TGI: 1.98 µM
LXFL 529 NSCLC
  TGI: 1.79 µM
M14 melanoma
  TGI: 6.03 µM
MALME-3M melanoma
  TGI: 2.78 µM
MOLT-4 leukemia
  TGI: 2.09 µM
NCI-H226 lung
  TGI: 15.4 µM
NCI-H23 lung
  TGI: 3.04 µM
NCI-H460 lung
  TGI: 6.62 µM
NCI-H522 lung
  TGI: 5.7 µM
OVCAR-3 ovarian
  TGI: 2.11 µM
OVCAR-4 ovarian
  TGI: 26.1 µM
OVCAR-5 ovarian
  TGI: 19.6 µM
OVCAR-8 ovarian
  TGI: 1.84 µM
RPMI-8226 leukemia
  TGI: 3.16 µM
RXF 393 renal
  TGI: 11.6 µM
SF-268 CNS
  TGI: 2.75 µM
SF-295 CNS
  TGI: 16.3 µM
SF-539 CNS
  TGI: 5.12 µM
SK-MEL-2 melanoma
  TGI: 2.99 µM
SK-MEL-28 melanoma
  TGI: 10.3 µM
SK-MEL-5 melanoma
  TGI: 7.76 µM
SK-OV-3 ovarian
  TGI: 13.6 µM
SN12C renal
  TGI: 2.33 µM
SNB-19 CNS
  TGI: 23.3 µM
SNB-75 CNS
  TGI: 16.3 µM
SNB-78 CNS
  TGI: 11.1 µM
SR leukemia
  TGI: 1.52 µM
SW-620 colon
  TGI: 1.43 µM
TK-10 renal
  TGI: 17.2 µM
U251 CNS
  TGI: 2.02 µM
UACC-257 melanoma
  TGI: 10.4 µM
UACC-62 melanoma
  TGI: 9.36 µM
UO-31 renal
  TGI: 8.52 µM
XF 498 CNS
  TGI: 7.99 µM
